# Tests used:
# Assay type in all cases: cell-based, human
# 15701 mRNA = experiment: TaqMan PI3-kinase panel, 15701 mRNA expression; conditions: 48 hours
# Source text: In an expanded breast cancer tissue panel, 15701 mRNA was expressed at increased levels (2-131 fold) in 14/15 primary breast tumor samples when compared to 4/4 normal breast tissue samples. In a breast cancer cell model panel, 15701 mRNA was expressed at a 4-fold increased level in transformed, activated H-ras-expressing MCF10AT01 cells vs. normal MCF10A cells, and at a 5-fold increased level in transformed, activated H-ras-expressing MCF10AT3B cells when compared to normal MCF10A cells. 15701 mRNA was expressed in many breast tumor cell lines, including MCF-7, T47D, ZR-75 and MDA-MB-468. In the PI3-kinase panel, 15701 mRNA expression was decreased in MDA-MB-468, MCF-7 and LNCaP cells after 48 hours treatment with the PI3-kinase inhibitor LY294002. 15701 mRNA expression in MDA-MB-468 cells decreased 7-fold after 48 hours with LY294002 (115 uM). […]
# This example describes the TaqMan™ procedure. The Taqman™ procedure is a quantitative, reverse transcription PCR-based approach for detecting mRNA. […]
# (§1) During the PCR reaction, cleavage of the probe separates the reporter dye and the quencher dye, resulting in increased fluorescence of the reporter. Accumulation of PCR products is detected directly by monitoring the increase in fluorescence of the reporter dye. When the probe is intact, the proximity of the reporter dye to the quencher dye results in suppression of the reporter fluorescence. […]
# 39228 mRNA = experiment: TaqMan analysis of the Cox inhibitor study, 39228 mRNA expression in HUVEC; conditions: 40-100 mM, 10 h, relative to a vehicle (DMSO) control
# Source text: (§2) This example describes the TaqMan™ procedure. The Taqman™ procedure is a quantitative, reverse transcription PCR-based approach for detecting mRNA. The RT-PCR reaction exploits the 5′ nuclease activity of AmpliTaq Gold™ DNA Polymerase to cleave a TaqMan™ probe during PCR. Briefly, cDNA was generated from the samples of interest, e.g., heart, kidney, liver, skeletal muscle, and various vessels, and used as the starting material for PCR amplification. In addition to the 5′ and 3′ gene-specific primers, a gene-specific oligonucleotide probe (complementary to the region being amplified) was included in the reaction (i.e., the Taqman™ probe). […]
# as §1
# 20743 mRNA = experiment: Breast cancer cell model panel, 20743 mRNA expression in MCF10A cells
# Experimental: On a breast cancer cell model panel, 20743 mRNA expression in MCF10A cells was increased 4-fold by 8 hrs treatment of 10 ng/ml EGF and was increased 3-fold by 3 hrs treatment with 10 nM IGF1.
# as §2, §1
# 2201 = experiment: Breast cancer cell model panel, 2201 in MCF10A cells; conditions: 8 hour treatment, 10 ng/ml
# Experimental: In a breast cancer cell model panel, 2201 is increased 3-fold after an 8 hour treatment of MCF10A cells with 10 ng/ml EGF.
# as §2, §1
molecule,measurement,setting,value
O=c1cc(N2CCOCC2)oc2c(-c3ccccc3)cccc12 [LY294002],15701 mRNA expression decrease,"15701 mRNA; MCF-7 cells, 30 uM",16 fold
same,15701 mRNA expression decrease,"15701 mRNA; MDA-MB-468 cells, 115 uM",7 fold
CS(=O)(=O)Nc1ccc([N+](=O)[O-])cc1OC1CCCCC1 [NS398],39228 mRNA expression,39228 mRNA,increased
CC1=C(CC(=O)O)c2cc(F)ccc2/C1=C\c1ccc([S+](C)[O-])cc1 (stereo not shown) [Sulindac],39228 mRNA expression,39228 mRNA,increased
"EGF: epidermal growth factor (NSDSECPLSHDGYCLHDGVCMYIEALDKYACNCVVGYIGERCQYRDLKWWELR; UniProt P01133 971-1023, looked up)",20743 mRNA expression increase,"20743 mRNA; 8 hrs treatment, 10 ng/ml",4 fold
same,2201 increase,2201,3 fold
IGF1: growth factor used to treat MCF10A cells,20743 mRNA expression increase,"20743 mRNA; 3 hrs treatment, 10 nM",3 fold

# — patent publication US20040235071A1, “Methods and compositions for treating cancer using 15986, 2188, 20743, 9148, 9151, 9791, 44252, 14184, 42461, 8204, 7970, 25552, 21657, 26492, 2411, 15088, 1905, 28899, 63380, 33935, 10480, 12686, 25501, 17694, 15701, 53062, 49908, 21612, 38949, 6216, 46863, 9235, 2201, 6985, 9883, 12238, 18057, …” (Millennium Pharmaceuticals, Inc., priority 2002, published 2004)
